Molecules are shown by their SMILES. In brackets after ≈: the same amount, converted by molar mass. Like-named read-outs stand apart in the source and are kept apart here. Where only a bound is given, the exact number is not on record here.

In data set [1] the test system is C. tropicalis RMIT 181. As to the kind of experiment: M38-P microdilution MIC/MFC. The class given is cell-based. Particulars: 35° C. For orientation: Dilution methods test growth across graded concentrations, often in twofold steps.
Data set [2] has as its system Rhizomucor pusillus. Nature of the data set: M38-P microdilution MIC/MFC. Type of data set: cell-based. As to conditions: Table 16, 48 h, 35° C.
Data set [3] has as its system Cryptococcus neoformans. As to the kind of experiment: M38-P microdilution MIC/MFC. Type of data set: cell-based. Particulars: Table 16, 24 h, 35° C.
Data set [4] has as its system Candida albicans. As to the kind of experiment: M38-P microdilution MIC/MFC. The class given is cell-based. As to conditions: Table 16, 24 h, 35° C.
For data set [5], the system named is C. parapsilosis RMIT 178. As to the kind of experiment: M38-P microdilution MIC/MFC. The class given is cell-based. Particulars: 35° C.
The test system of data set [6] is C. krusei RMIT 177. As to the kind of experiment: M38-P microdilution MIC/MFC. The class given is cell-based. Particulars: 35° C.
Data set [7] has as its system Phialophora verrucosa. As to the kind of experiment: M38-P microdilution MIC/MFC. The class given is cell-based. Particulars: Table 16, Dematiaceous fungi.
For data set [8], the system named is Pseudoallescheria boydii. As to the kind of experiment: M38-P microdilution MIC/MFC. The class given is cell-based. As to conditions: Table 16, Dematiaceous fungi.
The subject of data set [9] is Aspergillus fumigatus. Nature of the data set: M38-P microdilution MIC/MFC. Particulars: Table 16, 48 h, 35° C. The class given is cell-based.
For data set [10], the system named is F. chlamydosporum. Nature of the data set: M38-P microdilution MIC/MFC. The class given is cell-based. Particulars: Table 16, 48 h, 35° C.
Data set [11] concerns Rhizopus stoloniefer. As to the kind of experiment: M38-P microdilution MIC/MFC. The class given is cell-based. As to conditions: Table 16, 48 h, 35° C.
Data set [12] deals with Fusarium graminearum. Nature of the data set: microbe, parasite or virus in culture. The class given is cell-based. Particulars: Table 16; M38-P; 48 h, 35° C.
The test system of data set [13] is Fonsecaea pedrosoi. As to the kind of experiment: M38-P microdilution MIC/MFC. Type of data set: cell-based. As to conditions: Table 16, Dematiaceous fungi.
Data set [14] concerns C. guillermondii RMIT 176. Nature of the data set: M38-P microdilution MIC/MFC. The class given is cell-based. As to conditions: Table 16, 24 h, 35° C.
Data set [15] relates to R. oryzae. Nature of the data set: M38-P microdilution MIC/MFC. Type of data set: cell-based. Particulars: Table 16, 48 h, 35° C.
The test system of data set [16] is Paecilomyces variotii. As to the kind of experiment: M38-P microdilution MIC/MFC. As to conditions: Table 16, 48 h, 35° C. The class given is cell-based.
Data set [17] has as its system A. Niger. Nature of the data set: M38-P microdilution MIC/MFC. Type of data set: cell-based. As to conditions: Table 16, 48 h, 35° C.
Data set [18] relates to A. Flavus. As to the kind of experiment: M38-P microdilution MIC/MFC. Type of data set: cell-based. As to conditions: Table 16, 48 h, 35° C.
Data set [19] relates to C. glabrate RMIT 157. Nature of the data set: M38-P microdilution MIC/MFC. Type of data set: cell-based. As to conditions: Table 16, 24 h, 35° C.
Data set [20] has as its system Pseudomonas aeruginosa ATCC 27853. As to the kind of experiment: NCCLS broth microdilution MIC/MBC. The class given is cell-based. As to conditions: for MIC: Pseudomonas aeruginosa, ATCC27853, read-out: MIC.
The subject of data set [21] is Haemophilus influenzae. As to the kind of experiment: NCCLS broth microdilution MIC/MBC. Type of data set: cell-based. As to conditions: Table 9, 35° C., 24 hours.
In data set [22] the test system is Escherichia coli ATCC 25922. Nature of the data set: NCCLS broth microdilution MIC/MBC. Type of data set: cell-based. As to conditions: for MIC: Escherichia coli, ATCC25922, read-out: MIC.
For data set [23], the system named is Staphylococcus aureus ATCC 29213. As to the kind of experiment: NCCLS broth microdilution MIC/MBC. The class given is cell-based. Particulars: for MIC: Staphylococcus aureus, ATCC29213, read-out: MIC.
Data set [24] deals with S. aureus. Nature of the data set: Antibacterial activity in the presence of blood, macrodilution. The class given is cell-based.
In data set [25] the test system is Enterococcus faecalis ATCC 29212. Nature of the data set: NCCLS broth microdilution MIC/MBC. Particulars: for MIC: Enterococcus faecalis, ATCC29212. The class given is cell-based.
Data set [26] relates to Salmonella intranasally. As to the kind of experiment: Anti-bacterial activity in vivo, infected mice. As to conditions: schedule +2, +3; 200 mg/kg intramuscularly.
Data set [27] can be described thus: Solubility.
Data set [28] relates to Corynebacterium paratuberculosis. Nature of the data set: Anti-bacterial activity in vivo, infected mice. The protocol: The therapeutic and prophylactic effect of the substances was determined in experiments in vivo on mice, infected intraperitoneally or intranasally with Corynebacterium paratuberculosis.
Data set [29] deals with skin wounds infected by Streptococcus and Staphylococcus. Nature of the data set: Treatment of infected wounds, human volunteers. The class given is in vivo. As to conditions: 0.1% ointment for 3 days. The protocol: Human volunteers suffering from skin wounds infected by Streptococcus and Staphylococcus were treated with 0.1% Compounds (1) and (2) in an ointment base of vaseline, sheep fat, and sulfoxide.

The test system of data set [30] is Epidermophyton floccosum. Nature of the data set: NCCLS broth macro-dilution MIC/MFC (RPMI). As to conditions: Table 10, 7 day, 30° C. The class given is cell-based.
Data set [31] deals with Microsporum gypseum. Nature of the data set: NCCLS broth macro-dilution MIC/MFC (RPMI). The class given is cell-based. Particulars: Table 10, 7 day, 30° C.
Data set [32] has as its system Trichophyton rubrum. As to the kind of experiment: NCCLS broth macro-dilution MIC/MFC (RPMI). Type of data set: cell-based. Particulars: Table 10, 7 day, 30° C.
Data set [33] concerns Rhodotorula rubra. Nature of the data set: NCCLS broth macro-dilution MIC/MFC (RPMI). The class given is cell-based. Particulars: Table 10, 4 day, 30° C.
The test system of data set [34] is Fusarium graminearum. Nature of the data set: microbe, parasite or virus in culture. The class given is cell-based.
Data set [35] concerns Candida albicans. Nature of the data set: NCCLS broth macro-dilution MIC/MFC (RPMI). The class given is cell-based. Particulars: Table 10, 4 day, 30° C.

Take `C[C@@H]1[C@H](O)[C@@H](C)/C=C/C=C/C=C/C=C/C=C/C=C/C=C/[C@H](O[C@@H]2O[C@H](C)[C@@H](O)[C@H](N)[C@@H]2O)C[C@@H]2O[C@](O)(C[C@@H](O)C[C@@H](O)[C@H](O)CC[C@@H](O)C[C@@H](O)CC(=O)O[C@H]1C)C[C@H](O)[C@H]2C(=O)O` [Amphotericin B]: the MIC in data set [1] (Table 16, 24 h) was found to be 0.25 µg/mL (≈ 0.271 µM); in data set [2], 1 µg/mL (≈ 1.08 µM); in [3] it was 0.5 µg/mL (≈ 0.541 µM); in data set [4], 0.251 µg/mL (≈ 0.272 µM); in data set [5] (Table 16, 24 h), 0.253 µg/mL (≈ 0.274 µM); in data set [6] (Table 16, 24 h), 0.52 µg/mL (≈ 0.563 µM). In addition, the MIC in data set [7] was 2 µg/mL (≈ 2.16 µM); in [8], 4 µg/mL (≈ 4.33 µM); in data set [10], 2 µg/mL (≈ 2.16 µM); in data set [11] it was more than 16 µg/mL; in data set [12] it was 4 µg/mL (≈ 4.33 µM); in data set [13] it was 8 µg/mL (≈ 8.66 µM). Besides, the MIC was 0.03 µg/mL (≈ 0.0325 µM) in data set [14]; 4 µg/mL (≈ 4.33 µM) in [15]; 1 µg/mL (≈ 1.08 µM) in data set [16]; 2 µg/mL (≈ 2.16 µM) in data set [17]; 8 µg/mL (≈ 8.66 µM) in [18]; 0.5 µg/mL (≈ 0.541 µM) in data set [19]. Also, the MMC in [1] (Table 16, 24 h) worked out at 0.5 µg/mL; in data set [2] it was 1 µg/mL; in data set [4], 0.25 µg/mL; in [5] (Table 16, 24 h), 0.25 µg/mL; in [6] (Table 16, 24 h), 0.5 µg/mL; in data set [7], 4 µg/mL. The MMC in [8] turned out to be 16 µg/mL; in data set [9], 8 µg/mL; in [10], 2 µg/mL; in [12], 8 µg/mL; in [13], 16 µg/mL; in data set [14], 0.06 µg/mL. In addition, the MMC was 4 µg/mL in [15]; 1 µg/mL in data set [16]; 2 µg/mL in data set [17]; 8 µg/mL in [18]; 1 µg/mL in data set [19].

`O=C(O)c1cn(C2CC2)c2cc(N3CCNCC3)c(F)cc2c1=O` [Ciprofloxacin]: the MIC in data set [20] (Table 9, 35° C., 24 hours) was 0.25 µg/mL (≈ 0.754 µM); in data set [20] (Table 17, 2 or 3 replicates), 0.25 µg/mL (≈ 0.754 µM); in data set [21] (Haemophilus influenzae, read-out: MIC), 0.006 µg/mL (≈ 0.0181 µM); in data set [22] (Table 9, 35° C., 24 hours), 0.02 µg/mL (≈ 0.0604 µM); in data set [22] (Table 17, 2 or 3 replicates), 0.02 µg/mL (≈ 0.0604 µM); in data set [23] (Table 9, 35° C., 24 hours), 0.25 µg/mL (≈ 0.754 µM). Besides, the MIC in [23] (Table 17, 2 or 3 replicates) worked out at 0.25 µg/mL (≈ 0.754 µM); in [25] (Table 9, 35° C., 24 hours), 0.5 µg/mL (≈ 1.51 µM); in data set [25] (Table 17, 2 or 3 replicates), 0.5 µg/mL (≈ 1.51 µM). In addition, the MMC in data set [20] (Table 9, 35° C., 24 hours) worked out at 0.25 µg/mL; in data set [20] (Table 17, 2 or 3 replicates), 0.25 µg/mL; in [21], 0.006 µg/mL; in [22] (Table 9, 35° C., 24 hours), 0.02 µg/mL; in [22] (Table 17, 2 or 3 replicates), 0.02 µg/mL; in [23] (Table 9, 35° C., 24 hours), 0.25 µg/mL. Besides, the MMC in data set [23] (Table 17, 2 or 3 replicates) was 0.25 µg/mL; in data set [25] (Table 9, 35° C., 24 hours) it was 0.5 µg/mL; in [25] (Table 17, 2 or 3 replicates) it was 0.5 µg/mL. The decrease in activity came out at 4 fold in [24] (in the presence of 10% plasma) and 2 fold in [24] (in the presence of whole blood).

For `O=[N+]([O-])/C=C/c1ccc2c(c1)OCO2` [Compound (2), 3,4-methylenedioxy-β-nitrostyrene], in data set [26], the “Cumulative mortality (test)” value is given as 15 and the “Incubation period days (test)” value is 1 days. Further, in data set [27], the “solubility in organic solvents” value was “soluble in acetone, alcohol, acetic acid and in a majority of organic solvents”; the solubility in water entry is on record as “non-soluble in water”. Moreover, in [28], the “therapeutic and prophylactic activity” value is “showed therapeutic and prophylactic activity”. Besides, the “clearing of infected wound” value in data set [29] was “cleared the wound completely of pus”.

As for `Clc1ccc(COC(Cn2ccnc2)c2ccc(Cl)cc2Cl)c(Cl)c1` (stereo not drawn) [Miconazole], the MIC is 1 µg/mL (≈ 2.4 µM) in data set [1] (Candida tropicalis, RMIT181, Table 16, 24 h, read-out: MIC); 0.25 µg/mL (≈ 0.601 µM) in data set [30] (Epidermophyton floccosum, 168 h); 4 µg/mL (≈ 9.61 µM) in data set [31] (Nannizzia gypsea, 168 h); 4 µg/mL (≈ 9.61 µM) in data set [3] (Cryptococcus neoformans, read-out: MIC); 0.5 µg/mL (≈ 1.2 µM) in data set [5] (Lodderomyces parapsilosis, RMIT178, Table 16, 24 h, read-out: MIC); 2 µg/mL (≈ 4.81 µM) in data set [6] (Pichia kudriavzevii, RMIT177, Table 16, 24 h, read-out: MIC). The MIC in [32] (Trichophyton rubrum, 168 h) is 1 µg/mL (≈ 2.4 µM); in [33] (Rhodotorula, 96 h) it was 8 µg/mL (≈ 19.2 µM); in [34] (Fusarium graminearum, 168 h), 32 µg/mL (≈ 76.9 µM); in data set [35] (Candida albicans, 96 h), 4 µg/mL (≈ 9.61 µM); in data set [14] (read-out: MIC) it was 1 µg/mL (≈ 2.4 µM); in data set [19] (read-out: MIC), 0.25 µg/mL (≈ 0.601 µM). In addition, the MMC in [1] (Table 16, 24 h) came to 2 µg/mL; in data set [30], 0.25 µg/mL; in [31], 64 µg/mL; in [5] (Table 16, 24 h), 0.5 µg/mL; in [6] (Table 16, 24 h) it was 2 µg/mL; in data set [32], 64 µg/mL. Besides, the MMC in data set [33] stood at 32 µg/mL; in [34] (Table 10, 7 day, 30° C.), 32 µg/mL; in data set [35], 8 µg/mL; in [14], 1 µg/mL; in data set [19] it was 0.5 µg/mL.

The record behind these values is patent US20150258059A1, “ANTIMICROBIAL AND RADIOPROTECTIVE COMPOUNDS” (BioDiem, Ltd, priority 2001, published 2015).
